Results as given in US10092537B2, “Use for PAI-1 inhibitor” (RENASCIENCE CO., LTD., priority 2013, dated 2018).

What was measured:
hematopoietic stem cells [1] = assay: Hematopoietic recovery after bone-marrow transplantation, compounds a, b, c (Experimental Example 5); format: in vivo, mice; details: compound a 100 mg/kg oral 4 days; compounds b and c 10 mg/kg oral 6 consecutive days after bone-marrow transplantation
Description: The procedures of Experimental Examples 4 (1) and 4 (4) were repeated using compounds b and c, instead of compound a, as a test compound.
Compound a was orally administered in an amount of 100 mg/kg for 4 consecutive days after bone-marrow transplantation. Compounds b and c were orally administered in an amount of 10 mg/kg for 6 consecutive days after bone-marrow transplantation.
Bone marrow was collected 1 and 3 weeks after bone-marrow transplantation. The total number of the whole bone-marrow cells (FIG. 9E), the proportion (%) of LSK-CD34 negative cells in the whole bone marrow (FIG. 9A), the total number of LSK-CD34 negative cells in the whole bone marrow (FIG. 9B), the proportion (%) of Lin-SLAM cells in the whole bone marrow (FIG. 9C), and the total number of Lin-SLAM cells in the whole bone marrow (FIG. 9D) were measured. The results are shown in the above-stated figures.

CML cells = assay: Chronic myelogenous leukemia model mice, imatinib with compound d or compound e (Experimental Example 17); format: in vivo; details: imatinib 150 mg/kg/day + compound d or compound e 10 mg/kg/day via gavage, day 8 to day 14
Description: Group 1: placebo group (physiological saline was administered via gavage)
Group 2: imatinib group (imatinib [150 mg/kg/day] was administered via gavage)
Group 3: imatinib+compound d group (imatinib [150 mg/kg/day] and compound d [10 mg/kg/day] were administered via gavage)
Group 4: imatinib+compound e group (imatinib [150 mg/kg/day] and compound e [10 mg/kg/day] were administered via gavage)
8 days after (day 8) the day (day 0) on which CML cells were intravenously inoculated, administration of test drugs to the groups was started. The placebo group and the imatinib group were administered the respective test drugs once a day from day 8 to day 14 (7 doses in total). The imatinib+compound d group and imatinib+compound e group were administered imatinib once a day from day 8 to day 14 (7 doses in total), and also administered compound d or e once a day from day 8 to day 14 (7 doses in total).

hematopoietic stem cells [2] = assay: Cell cycle (Ki-67, BrdU) and apoptosis (Annexin V) of bone-marrow cells 1 week after bone-marrow transplantation (Experimental Example 9); format: in vivo, mice
Description: In accordance with Experimental Example 7 (1), bone-marrow transplantation was conducted, and after the transplantation, physiological saline (control group), tPA (tPA-administered group), or compound a (compound a-administered group) was administered.
1 week after bone-marrow transplantation, the bone marrow was collected, and Ki-67 protein, which is a cell division marker, was immunostained with anti-Ki-67-FITC antibody (BD Bioscience) to analyze the cells in the cell-division cycle by FACSCalibur.
Subsequently, the number of Ki-67 positive cells in the cells of LSK fraction was examined to confirm that the proliferation of hematopoietic stem cells is promoted by compound a.
In addition, to more accurately detect the cells that moved to the S phase, 5-bromo-2-deoxyuridine (BrdU)-FITC (BD Pharmingen) was administered to the control group, tPA group, and compound a-administered group 1 week after bone-marrow transplantation, 3 hours before the collection of bone marrow. 6 mice were used for each group.
Because BrdU is a thymine derivative, BrdU, substituting for thymine, is incorporated into genomic DNA or the like during DNA replication. BrdU more specifically reflects the S phase than Ki-67 protein.
1 week after bone-marrow transplantation, bone marrow was collected from the control group, tPA group, and compound a-administered group (6 mice for each group), and Annexin V, which appears specifically in apoptosis, was detected with anti-Annexin V antibody immunostaining.

hematopoietic stem cells [3] = assay: Fibrinolytic pathway activation and bone-marrow regeneration after lethal radiation (9Gy) and bone-marrow transplantation, compound a versus recombinant tPA (Experimental Example 7)
Description: Within 4 hours, 1.0×10^6 bone-marrow mononucleic cells (BM MNC) were intravenously inoculated into retro-orbital plexus. Concurrently with transplantation, compound a (dosage 100 mg/kg) or recombinant tPA (dosage 100 mg/kg, Eisai Co., Ltd) were administered as a test compound via oral gavage, and the test compound was orally administered for 5 consecutive days (administered group). As a control test, instead of the test compound, physiological saline (vehicle) used for dissolving compound a was orally administered in the same manner (control group).
Blood was collected 2 and 7 days after bone-marrow transplantation, and the active PAI-1 level (ng/mL), active tissue-type plasminogen activator (active tPA), plasmin level (ng/mL), cKit ligand, and total MMP-9 (Matrix metalloprotein-9) in the plasma were measured.

hematopoietic stem cells [4] = assay: Frequency and absolute number of hematopoietic stem cells after bone-marrow transplantation (Experimental Example 8 (1)); format: in vivo, mice; details: 1 and 3 weeks after bone-marrow transplantation; compared with control group
Description: In accordance with the procedure of Experimental Example 7 (1), bone marrow was transplanted, and tPA or compound a was administered in the same manner as in Experimental Example 7. Physiological saline was administered to a control group. 1 and 3 weeks after bone-marrow transplantation, 12 mice of each group were measured for the number of bone-marrow mononucleic cells (BM MNC), the frequency and absolute number of Lin-SLAM cells, and the frequency and absolute number of LSK-CD34 negative cells.

hematopoietic stem cells [5] = assay: Bone-marrow transplanted mice, compound c, G-CSF and G-CSF neutralizing antibody (Experimental Example 13); format: in vivo; details: G-CSF 150 μg/kg/day
Description: Bone-marrow transplanted mice were prepared in the same manner as in Experimental Example 4, and compound c, G-CSF, and G-CSF neutralizing antibody were examined for the effects. Specifically, the bone-marrow transplanted mice were divided into 5 groups as shown below (each group: n=5) and orally administered respective test drugs.
Group 1: vehicle group (physiological saline was administered via gavage) (“v group”)
Group 2: compound c group (compound c [10 mg/kg/day] was administered via gavage) (“TM group”)
Group 3: G-CSF group (G-CSF [150 μg/kg/day] was administered via gavage) (“G group”)
Group 4: vehicle+anti-G-CSF group (physiological saline+G-CSF neutralizing antibody [500 μg/kg/day] was administered via gavage) (“v+Ab group”)
Group 5: compound c+anti-G-CSF group (compound c [500 μg/kg/day]+G-CSF neutralizing antibody [500 μg/kg/day] was administered via gavage) (“TM+Ab group”)
Concurrently with bone-marrow transplantation, administration of physiological saline (vehicle) to the vehicle group via gavage was started, and the administration continued for 5 consecutive days. Concurrently with bone-marrow transplantation, administration of compound c (10 mg/kg/day) to the compound c group via gavage was started, and the administration continued for 5 consecutive days. Concurrently with bone-marrow transplantation, subcutaneous administration of G-CSF (150 μg/kg/day) to the G-CSF group was started, and the administration continued for 5 consecutive days. Concurrently with bone-marrow transplantation, gavage administration of physiological saline and subcutaneous administration of G-CSF neutralizing antibody (R&D) (500 μg/kg/day) to the vehicle+anti-G-CSF group were started, and the administration continued for 5 consecutive days. Concurrently with bone-marrow transplantation, gavage administration of compound c (10 mg/kg/day) and intraperitoneal administration of G-CSF neutralizing antibody (R&D) (500 μg/kg/day) to the compound c+anti-G-CSF group were started, and the administration continued for 5 consecutive days.
1 week after bone-marrow transplantation, plasma and bone-marrow fluids were collected from mice of each group (v group, TM group, G group, v+Ab group, and TM+Ab group), and the G-CSF concentration (pg/ml) was measured by ELISA. The following were determined in accordance with an ordinary procedure: (B) G-CSF concentration (pg/ml) in bone-marrow fluids, (C) total number of mononucleic cells (×10E7 cell) in the bone marrow, (D) proportion (%) of LSK CD34 negative cells in the bone marrow, (E) total number of LSK CD34 negative cells in the bone marrow, (F) proportion (%) of Lin-SLAM cells in the bone marrow, and (G) total number of Lin-SLAM cells in the bone marrow.

[6] = tPA group compared with control group, compound a group compared with tPA group

O=C(Nc1cccc(-c2ccoc2)c1)C(=O)Nc1ccc(Cl)cc1C(=O)O [Example 45 (compound group 3), 5-chloro-2-{[{[3-(furan-3-yl)phenyl]amino}(oxo)acetyl]amino}benzoic acid]
frequency of hematopoietic stem cells (hematopoietic stem cells [1]): increase | self-renewal capacity of hematopoietic stem cells (hematopoietic stem cells [1]): enhance

O=C(COCC(=O)Nc1ccc(Cl)cc1C(=O)O)Nc1cccc(-c2ccco2)c1 [Example 61 (compound group 3), 5-chloro-2-{[(2-{[3-(furan-2-yl)phenyl]amino}-2-oxoethoxy)acetyl]amino}benzoic acid]
survival (CML cells): some mice survived even after day 40

tPA: recombinant tPA (tissue-type plasminogen activator), Eisai Co., Ltd
proportion of cells that were induced apoptosis (Annexin V) (hematopoietic stem cells [2]; compared with control group): decrease | cells in the S phase (BrdU incorporated into LSK cells) (hematopoietic stem cells [2]; control group 18.1%): 18.8% | Ki-67 positive, cells classified into the LSK fraction taken as 100% (hematopoietic stem cells [2]; control group 43.3%): 50.7% | cell count of cells at the S-G2-M phase (Ki-67) in bone-marrow mononucleic cells (hematopoietic stem cells [2]; control group 44.2%): 50.8% | cell count of cells at the G0/G1 phase (Ki-67) in bone-marrow mononucleic cells (hematopoietic stem cells [2]; control group 55.8%): 49.2% | level of active tPA in plasma (hematopoietic stem cells [3]; 2 days after bone-marrow transplantation, among control, tPA and compound a groups): highest level | expression of active PAI-1 in the plasma (hematopoietic stem cells [3]; compound a or recombinant tPA 100 mg/kg, 5 consecutive days, 2 and 7 days after bone-marrow transplantation): lower than that of the control group | survival rate on day 28 from bone-marrow transplantation (hematopoietic stem cells [3]; lethal radiation 9Gy, 100 mg/kg, 5 consecutive days, n=15, control group 20%): 50% | platelet count in the peripheral blood (hematopoietic stem cells [3]; [6]): significantly increased | white blood cell count in the peripheral blood (hematopoietic stem cells [3]; [6]): significantly increased | number of bone-marrow mononucleic cells (hematopoietic stem cells [4]): slightly larger

B1: G-CSF: granulocyte colony stimulating factor, administered 150 μg/kg/day (protein, UniProt P09919 31-207, looked up)
Granulocyte …: TPLGPASSLPQSFLLKCLEQVRKIQGDGAALQEKLVSECATYKLCHPEELVLLGHSLGIPWAPLSSCPSQALQLAGCLSQLHSGLFLYQGLLQALEGISPELGPTLDTLQLDVADFATTIWQQMEELGMAPALQPTQGAMPAFASAFQRRAGGVLVASHLQSFLEVSYRVLRHLAQP
proportion and number of Lin-SLAM cells (hematopoietic stem cells [5]; single agents: TM (compound c) 10 mg/kg/day, G-CSF neutralizing antibody 500 μg/kg/day with vehicle, versus vehicle group): increased | G-CSF concentration in the plasma and bone-marrow fluids (hematopoietic stem cells [5]; single agents: compound c 10 mg/kg/day gavage, G-CSF neutralizing antibody 500 μg/kg/day with vehicle, 1 week after transplantation, versus vehicle): significant increases | proportion and number of LSK CD34 negative cells (hematopoietic stem cells [5]; single agents: compound c 10 mg/kg/day, G-CSF neutralizing antibody 500 μg/kg/day with vehicle, versus vehicle group): increased | number of BM MNC (hematopoietic stem cells [5]; single agents: compound c 10 mg/kg/day, versus vehicle group): more increased
